Columns and labels:
NCp7 [1] = molecular target: T1, NCp7 (Human immunodeficiency virus type 1 group M subtype B, UniProt P12493); details: read-out: Kd′, single binding constant fit of FRET titration; Nt≅10 nM; emission at 517 nm
Protocol: FRET-monitored titration of the C3 (SEQ ID NO: 7) (Nt≅10 nM). [NCp7] increases left to right, expressed as the ratio Pt/Nt. The emission at 517 nm is reported after subtracting that of the RNase treated sample. […] Uncertainty in Nt limits the precision of this determination.
A fluorophore is placed at the 5′-end of the chain (*), and a quencher at the location marked Q. The distance between fluorophore and quencher is much larger in H than in O, so H has much stronger fluorescence.

[2] = H/O conformational equilibrium of the C3 switch by fluorescence; assay type: physicochemical; details: no protein
Text: Such “molecular beacons” operate on the principle of FRET.
It is appropriate to examine the two extreme states in FIG. 11 (sequences M1 and M2 in Table 2). This allows evaluation of the position of the K1 equilibrium shift upon changing the sequence. Simply put, the luminescence of pure H and O are known, so their populations in a mixed system are just linear functions of the measured luminescence.

NC = NC (Human immunodeficiency virus type 1 group M subtype B, UniProt P12493); details: cited from earlier work
NCp7 [3] = molecular target: T1, NCp7; details: 10 nM concentration of the switch

C3: unimolecular bistable RNA/DNA switch, SEQ ID NO: 7, with FAM fluorophore and Dabsyl quencher (GCTATCCACCGATAGCTCCAACACGCUAGCGGUGGCUAGC; RNA/DNA chimera, FAM fluorophore and Dabsyl quencher, positions not given here)
Kd (NCp7 [1]): 0.5 µM | K1 = [O]/[H] [2]: 0.08

c(F-C-dW-R-C-K)
competition with NC for in vitro recognition of its RNA, DNA and protein targets (NC): competes with NC

B1: M3: tethered duplex of all-DNA chain SEQ ID NO: 3 and DNA/RNA chimeric chain SEQ ID NO: 6 (nucleic acid)
chain 1: GCTATCCACCGATAGCTCACAGCACGACTCAGATGG
chain 2: CCATCTGAGTCGTGCACGCUAGCGGUGGCUAGC
modifications: chain 1: DNA, backbone not given here; chain 2: chemistry not given here; strands tethered, second strand DNA/RNA chimera
time of equilibration with NCp7 (NCp7 [3]): within a minute

— patent publication US8080379B2, “Branched and multi-chain nucleic acid switches for sensing and screening” (Syracuse University, priority 2004, dated 2011)
